In publication PMC12720774, “Detergents alter the stability and lipid binding properties of the CD1d immunoreceptor” (Protein Science : A Publication of the Protein Society, 2025):
“And” between values parts separate entries of the source, which are not always exact repeats. Equal entries are not always repeated.

Columns and labels:
[1] = target: T1, CSP 319‐328/HLA‐B*08:01/hβ2M complex (Homo sapiens, UniProt P01889, A93T/A95T/D138N/E176V/E187T/K202T/Q94N/R180D/S35A/V36M/Y33D/Y91F); assay: nanoDSF with peptide/HLA complex; format: binding; conditions: for nanoDSF melting temperature of peptide/HLA: peptide/HLA with Tween 20, replicates
T1 construct: made in house
Excerpt: (§1) To determine whether detergent effects were specific to hCD1d, we performed analogous ITF, MST, and nanoDSF experiments with a peptide/HLA complex. HLA‐B*08:01, presenting the Plasmodium falciparum derived peptide […] ([…]), was selected as a representative model system since the peptide antigen contains hydrophilic solvent‐exposed residues in the antigen‐binding groove (Frooman et al., [2025]). Although structurally similar to that of hCD1d, HLA‐B*08:01 shares low sequence identity (Figure S10a). […] By nanoDSF, ODG caused minimal destabilization of either complex (ΔT m≈−0.2 to −0.8°C; Figure S10f). […] We posit that lipid‐specific unloading effects of detergent are due to either hydrophobic residues in the antigen binding groove (detergent‐CD1d interactions) and/or the hydrophobic nature of the lipid antigen (detergent‐lipid interactions).
(§2) For comparison with peptide/HLA molecules, we prepared recombinant CSP 319‐328/HLA‐B*08:01/hβ2M complex using in vitro refolding methods fully described previously (Frooman et al., [2025]). The peptide sequence for CSP 319–328 is […]. This peptide was chosen since it contains Lys, Gln, and Asp residues predicted to be solvent‐exposed in the HLA‐B*08:01 binding groove (Frooman et al., [2025]).
NanoDSF experiments with peptide/HLA molecules and detergents were performed using an analogous protocol.

[2] = target: T1, CSP 319‐328/HLA‐B*08:01/hβ2M complex; assay: ITF with peptide/HLA complex; format: binding; conditions: for ITF change in Trp fluorescence (F-F0/F0): peptide/HLA with Tween 20, replicates
Excerpt: as §1, §2
ITF experiments with peptide/HLA molecules and detergents were performed using an analogous protocol.

CD1c = tested on: CD1c; design: method as in Mansour et al., 2016; conditions: ref Mansour et al., 2016; cited from earlier work
[3] = target: T1, CSP 319‐328/HLA‐B*08:01/hβ2M complex; assay: MST with peptide/HLA complex; format: binding; conditions: for MST normalized fluorescence signal (Fnorm): peptide/HLA with Tween 20, replicates
Excerpt: as §1, §2
MST experiments with peptide/HLA molecules and detergents were performed using an analogous protocol.

[4] = concentration 6.25e-5 (unit not given)
[5] = concentration 0.000125 (unit not given)
[6] = concentration 0.00025 (unit not given)

Tween 20
ΔT m (nanoDSF), peptide/HLA ([1]; absence vs maximum concentration of detergent, 1 μM peptide/HLA): ≈ −0.3 °C
nanoDSF melting temperature of peptide/HLA ([1]; concentration 0.030518 (unit not given)): 55.19 and 55.32 and 55.37
nanoDSF melting temperature of peptide/HLA ([1]; concentration 0.061035 (unit not given)): 55.29 and 55.45 and 55.24
nanoDSF melting temperature of peptide/HLA ([1]; concentration 0.12207 (unit not given)): 55.51 and 55.26 and 55.3
nanoDSF melting temperature of peptide/HLA ([1]; concentration 0.244141 (unit not given)): 55.15 and 55.36 and 55.47
nanoDSF melting temperature of peptide/HLA ([1]; concentration 0.488281 (unit not given)): 55.37 and 55.28 and 55.18
nanoDSF melting temperature of peptide/HLA ([1]; concentration 0.976563 (unit not given)): 55.33 and 55.35 and 55.37
nanoDSF melting temperature of peptide/HLA ([1]; concentration 1.95312 (unit not given)): 55.37 and 55.15
nanoDSF melting temperature of peptide/HLA ([1]; concentration 3.90625 (unit not given)): 55.29 and 55.17 and 55.23
nanoDSF melting temperature of peptide/HLA ([1]; concentration 7.8125 (unit not given)): 55.43 and 55.31 and 55.36
nanoDSF melting temperature of peptide/HLA ([1]; concentration 15.625 (unit not given)): 55.24 and 55.22 and 55.41
nanoDSF melting temperature of peptide/HLA ([1]; concentration 31.25 (unit not given)): 55.63 and 55.25 and 55.23
nanoDSF melting temperature of peptide/HLA ([1]; concentration 62.5 (unit not given)): 55.32 and 55.31 and 55.25
nanoDSF melting temperature of peptide/HLA ([1]; concentration 125 (unit not given)): 55.13 and 55.18 and 55.19
nanoDSF melting temperature of peptide/HLA ([1]; concentration 250 (unit not given)): 55.22 and 55.06 and 55.24
nanoDSF melting temperature of peptide/HLA ([1]; concentration 500 (unit not given)): 54.35 and 55.14 and 54.93
nanoDSF melting temperature of peptide/HLA ([1]; concentration 1000 (unit not given)): 55.13 and 54.89 and 54.93
Kd ([2]; 100 nM peptide/HLA, 25°C, read-out: K D (ITF), peptide/HLA): 7.7 ± 0.8 µM
ITF change in Trp fluorescence (F-F0/F0) ([2]; concentration 3.05e-8 (unit not given)): 0
ITF change in Trp fluorescence (F-F0/F0) ([2]; concentration 6.1e-8 (unit not given)): -0.0537 and 0.114 and 0.0797
ITF change in Trp fluorescence (F-F0/F0) ([2]; concentration 1.22e-7 (unit not given)): 0.119 and -0.000172 and -0.0554
ITF change in Trp fluorescence (F-F0/F0) ([2]; concentration 2.44e-7 (unit not given)): -0.00869 and 0.126 and 0.0688
ITF change in Trp fluorescence (F-F0/F0) ([2]; concentration 4.88e-7 (unit not given)): 0.121 and 0.101 and 0.0628
ITF change in Trp fluorescence (F-F0/F0) ([2]; concentration 9.77e-7 (unit not given)): 0.12 and -0.0283 and -0.0494
ITF change in Trp fluorescence (F-F0/F0) ([2]; concentration 1.95e-6 (unit not given)): 0.159 and 0.0122 and -0.04
ITF change in Trp fluorescence (F-F0/F0) ([2]; concentration 3.91e-6 (unit not given)): 0.0962 and 0.218 and 0.169
ITF change in Trp fluorescence (F-F0/F0) ([2]; concentration 7.81e-6 (unit not given)): 0.176 and 0.206 and 0.0921
ITF change in Trp fluorescence (F-F0/F0) ([2]; concentration 1.56e-5 (unit not given)): 0.336 and 0.182 and 0.11
ITF change in Trp fluorescence (F-F0/F0) ([2]; concentration 3.13e-5 (unit not given)): 0.356 and 0.339 and 0.0994
ITF change in Trp fluorescence (F-F0/F0) [2, 4]: 0.189 and 0.365 and 0.248
ITF change in Trp fluorescence (F-F0/F0) [2, 5]: 0.38 and 0.23 and 0.139
ITF change in Trp fluorescence (F-F0/F0) [2, 6]: 0.261 and 0.271 and 0.181
stripping of lipid antigens from CD1c (in words) (CD1c): could efficiently strip lipid antigens away
Kd ([3]; 100 nM AF647‐labeled peptide/HLA, 25°C, read-out: K D (MST), peptide/HLA): 10.1 ± 2.8 µM
MST normalized fluorescence signal (Fnorm) ([3]; concentration 3.05176e-8 (unit not given)): 826.857 and 829.996 and 831.035
MST normalized fluorescence signal (Fnorm) ([3]; concentration 6.10352e-8 (unit not given)): 827.636 and 831.405 and 830.579
MST normalized fluorescence signal (Fnorm) ([3]; concentration 1.2207e-7 (unit not given)): 825.955 and 829.58 and 832.602
MST normalized fluorescence signal (Fnorm) ([3]; concentration 2.44141e-7 (unit not given)): 826.8 and 829.861 and 831.726
MST normalized fluorescence signal (Fnorm) ([3]; concentration 4.88281e-7 (unit not given)): 824.798 and 829.349 and 832.449
MST normalized fluorescence signal (Fnorm) ([3]; concentration 9.76563e-7 (unit not given)): 827.728 and 832.261 and 832.695
MST normalized fluorescence signal (Fnorm) ([3]; concentration 1.95313e-6 (unit not given)): 829.662 and 834.525 and 833.392
MST normalized fluorescence signal (Fnorm) ([3]; concentration 3.90625e-6 (unit not given)): 826.877 and 835.214 and 835.492
MST normalized fluorescence signal (Fnorm) ([3]; concentration 7.8125e-6 (unit not given)): 836.072 and 833.005 and 835.4
MST normalized fluorescence signal (Fnorm) ([3]; concentration 1.5625e-5 (unit not given)): 830.346 and 831.213 and 835.161
MST normalized fluorescence signal (Fnorm) ([3]; concentration 3.125e-5 (unit not given)): 838.975 and 840.638 and 846.826
MST normalized fluorescence signal (Fnorm) [3, 4]: 839.005 and 846.034 and 849.234
MST normalized fluorescence signal (Fnorm) [3, 5]: 840.518 and 838.062 and 842.957
MST normalized fluorescence signal (Fnorm) [3, 6]: 834.255 and 840.226 and 843.206
MST normalized fluorescence signal (Fnorm) ([3]; concentration 0.0005 (unit not given)): 839.953 and 837.123 and 843.815
MST normalized fluorescence signal (Fnorm) ([3]; concentration 0.001 (unit not given)): 833.107 and 838.64 and 841.342
